Assay results as given in ChEMBL document CHEMBL4507273 (2021).

Experiments:
[1] = target: Serine/threonine-protein kinase MARK1 (Homo sapiens) (UniProt Q9P0L2); conditions: Compound concentration 1000.0 nM
[2] = target: Cyclin-dependent kinase 18 (Homo sapiens) (UniProt Q07002); conditions: Compound concentration 1000.0 nM
Histamine H2 receptor = Histamine H2 receptor (Homo sapiens, UniProt P25021); conditions: Compound concentration 10.0 uM
[3] = target: BDNF/NT-3 growth factors receptor (Homo sapiens) (UniProt Q16620); conditions: Compound concentration 1000.0 nM
[4] = target: 5-hydroxytryptamine receptor 2A (Homo sapiens, UniProt P28223); assay: GPCRScan assay: inhibition of 5-HT2A; set-up: radioligand conc. used [nm] 1.2 – 2.4, parental cells HEKT
Chain of 5-hydroxytryptamine receptor 2A (P28223 whole entry): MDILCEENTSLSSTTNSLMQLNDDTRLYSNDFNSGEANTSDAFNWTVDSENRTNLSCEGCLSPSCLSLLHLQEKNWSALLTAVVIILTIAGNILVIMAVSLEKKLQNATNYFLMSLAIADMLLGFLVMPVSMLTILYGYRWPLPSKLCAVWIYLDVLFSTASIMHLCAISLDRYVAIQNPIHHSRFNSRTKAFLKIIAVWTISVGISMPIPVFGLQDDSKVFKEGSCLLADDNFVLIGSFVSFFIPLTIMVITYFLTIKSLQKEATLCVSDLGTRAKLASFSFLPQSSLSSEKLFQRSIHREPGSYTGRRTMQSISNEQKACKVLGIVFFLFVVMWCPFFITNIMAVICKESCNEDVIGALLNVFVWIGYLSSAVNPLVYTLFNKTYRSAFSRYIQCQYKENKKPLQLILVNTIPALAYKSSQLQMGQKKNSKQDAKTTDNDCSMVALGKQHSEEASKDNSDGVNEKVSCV

[5] = target: NT-3 growth factor receptor (Homo sapiens) (UniProt Q16288); conditions: Compound concentration 1000.0 nM
[6] = target: SRSF protein kinase 1 (Homo sapiens) (UniProt Q96SB4); conditions: Compound concentration 1000.0 nM
[7] = target: Serine/threonine-protein kinase WNK4 (Homo sapiens) (UniProt Q96J92); conditions: Compound concentration 1000.0 nM
[8] = target: Serine/threonine-protein kinase Nek6 (Homo sapiens) (UniProt Q9HC98); conditions: Compound concentration 1000.0 nM
[9] = target: Alpha-1D adrenergic receptor (Homo sapiens) (UniProt P25100); conditions: Compound concentration 10.0 uM
[10] = target: Rhodopsin kinase GRK1 (Homo sapiens) (UniProt Q15835); conditions: Compound concentration 1000.0 nM
Chain of Rhodopsin kinase GRK1 (Homo sapiens) (Q15835 whole entry): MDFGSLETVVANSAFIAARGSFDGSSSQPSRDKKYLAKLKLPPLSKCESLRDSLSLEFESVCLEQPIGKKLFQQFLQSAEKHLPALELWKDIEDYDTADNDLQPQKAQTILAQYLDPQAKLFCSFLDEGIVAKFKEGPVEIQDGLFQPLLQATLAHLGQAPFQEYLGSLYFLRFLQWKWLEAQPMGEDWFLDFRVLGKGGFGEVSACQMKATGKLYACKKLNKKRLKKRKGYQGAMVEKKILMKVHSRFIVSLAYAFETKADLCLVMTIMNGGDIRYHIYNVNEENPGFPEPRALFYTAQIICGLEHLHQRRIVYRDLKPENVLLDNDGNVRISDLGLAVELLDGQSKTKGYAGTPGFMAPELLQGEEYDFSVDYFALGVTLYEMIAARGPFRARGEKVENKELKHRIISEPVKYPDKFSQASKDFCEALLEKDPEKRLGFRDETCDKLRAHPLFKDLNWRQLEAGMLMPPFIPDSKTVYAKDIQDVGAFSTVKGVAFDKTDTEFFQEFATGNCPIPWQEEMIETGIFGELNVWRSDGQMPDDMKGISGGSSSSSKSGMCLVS

[11] = target: Serine/threonine-protein kinase pim-1 (Homo sapiens) (UniProt P11309); conditions: Compound concentration 1000.0 nM
[12] = target: T1, Alpha-2A adrenergic receptor (Homo sapiens) (UniProt P08913); conditions: Compound concentration 10.0 uM
T1 sequence (whole entry): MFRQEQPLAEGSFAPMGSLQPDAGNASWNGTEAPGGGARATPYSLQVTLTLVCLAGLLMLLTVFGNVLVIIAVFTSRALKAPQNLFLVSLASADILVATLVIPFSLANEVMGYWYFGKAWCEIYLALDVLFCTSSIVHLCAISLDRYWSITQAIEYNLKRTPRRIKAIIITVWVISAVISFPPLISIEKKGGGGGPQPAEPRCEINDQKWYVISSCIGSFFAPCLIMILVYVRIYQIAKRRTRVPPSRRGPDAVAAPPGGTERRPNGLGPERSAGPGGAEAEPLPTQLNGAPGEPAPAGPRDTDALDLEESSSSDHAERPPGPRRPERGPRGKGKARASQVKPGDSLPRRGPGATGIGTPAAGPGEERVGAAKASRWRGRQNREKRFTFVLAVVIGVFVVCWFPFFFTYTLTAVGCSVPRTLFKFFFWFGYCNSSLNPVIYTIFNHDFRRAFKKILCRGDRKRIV

[13] = target: Alpha-2A adrenergic receptor (Homo sapiens, UniProt P08913); assay: GPCRScan assay: inhibition of Alpha2A; set-up: radioligand conc. used [nm] 1.0 – 3.0, parental cells stable MDCK
[14] = target: Muscarinic acetylcholine receptor M2 (Homo sapiens, UniProt P08172); assay: GPCRScan assay: inhibition of M2; set-up: radioligand conc. used [nm] 0.2 – 1.0, parental cells stable CHO
Chain of Muscarinic acetylcholine receptor M2 (P08172 whole entry): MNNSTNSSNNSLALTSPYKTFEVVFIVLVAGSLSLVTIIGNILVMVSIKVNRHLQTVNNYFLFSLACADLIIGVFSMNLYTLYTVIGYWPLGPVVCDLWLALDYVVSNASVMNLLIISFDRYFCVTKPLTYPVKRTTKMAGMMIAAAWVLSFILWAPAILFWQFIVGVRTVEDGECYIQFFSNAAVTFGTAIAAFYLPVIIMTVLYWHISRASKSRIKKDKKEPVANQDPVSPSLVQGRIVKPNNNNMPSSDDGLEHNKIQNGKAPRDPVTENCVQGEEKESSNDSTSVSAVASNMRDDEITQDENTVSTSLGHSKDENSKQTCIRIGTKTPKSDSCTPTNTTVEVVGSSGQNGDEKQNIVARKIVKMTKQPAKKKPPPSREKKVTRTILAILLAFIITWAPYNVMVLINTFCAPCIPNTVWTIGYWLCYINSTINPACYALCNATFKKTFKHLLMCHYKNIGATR

[15] = target: Calcium-dependent protein kinase 1 (Plasmodium falciparum) (UniProt P62344); conditions: Compound concentration 1000.0 nM
[16] = system: Serine/threonine-protein kinase B-raf (Homo sapiens), P15056 [V600E]; conditions: Compound concentration 1000.0 nM
[17] = target: Tyrosine-protein kinase FRK (Homo sapiens) (UniProt P42685); conditions: Compound concentration 1000.0 nM
[18] = target: Mitogen-activated protein kinase 12 (Homo sapiens) (UniProt P53778); conditions: Compound concentration 1000.0 nM
[19] = target: Serine/threonine-protein kinase RIO3 (Homo sapiens) (UniProt O14730); conditions: Compound concentration 1000.0 nM
Chain of Serine/threonine-protein kinase RIO3 (Homo sapiens) (O14730 whole entry): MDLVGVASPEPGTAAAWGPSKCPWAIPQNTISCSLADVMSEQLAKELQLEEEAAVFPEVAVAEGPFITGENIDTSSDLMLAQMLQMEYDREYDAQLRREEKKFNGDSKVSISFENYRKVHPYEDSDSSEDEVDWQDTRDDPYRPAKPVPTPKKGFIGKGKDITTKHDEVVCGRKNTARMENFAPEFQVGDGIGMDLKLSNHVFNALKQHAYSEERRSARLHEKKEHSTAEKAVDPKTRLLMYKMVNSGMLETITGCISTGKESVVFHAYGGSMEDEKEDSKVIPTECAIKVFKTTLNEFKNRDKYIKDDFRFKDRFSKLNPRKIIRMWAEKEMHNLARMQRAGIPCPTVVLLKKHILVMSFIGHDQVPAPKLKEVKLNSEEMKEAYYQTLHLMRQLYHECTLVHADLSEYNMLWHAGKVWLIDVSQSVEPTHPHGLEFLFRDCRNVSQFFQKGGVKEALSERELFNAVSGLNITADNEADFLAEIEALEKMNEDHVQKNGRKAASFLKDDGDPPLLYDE

[20] = target: Inhibitor of nuclear factor kappa-B kinase subunit beta (Homo sapiens) (UniProt O14920); conditions: Compound concentration 1000.0 nM
[21] = target: Phosphatidylinositol 5-phosphate 4-kinase type-2 gamma (Homo sapiens) (UniProt Q8TBX8); conditions: Compound concentration 1000.0 nM
[22] = target: Dual specificity mitogen-activated protein kinase kinase 7 (Homo sapiens) (UniProt O14733); conditions: Compound concentration 1000.0 nM
[23] = target: Casein kinase I isoform alpha-like (Homo sapiens) (UniProt Q8N752); conditions: Compound concentration 1000.0 nM
[24] = target: STE20/SPS1-related proline-alanine-rich protein kinase (Homo sapiens) (UniProt Q9UEW8); conditions: Compound concentration 1000.0 nM
[25] = target: Dual specificity protein kinase CLK3 (Homo sapiens) (UniProt P49761); conditions: Compound concentration 1000.0 nM
[26] = target: Serine/threonine-protein kinase N2 (Homo sapiens) (UniProt Q16513); conditions: Compound concentration 1000.0 nM
Chain of Serine/threonine-protein kinase N2 (Homo sapiens) (Q16513 whole entry, looked up): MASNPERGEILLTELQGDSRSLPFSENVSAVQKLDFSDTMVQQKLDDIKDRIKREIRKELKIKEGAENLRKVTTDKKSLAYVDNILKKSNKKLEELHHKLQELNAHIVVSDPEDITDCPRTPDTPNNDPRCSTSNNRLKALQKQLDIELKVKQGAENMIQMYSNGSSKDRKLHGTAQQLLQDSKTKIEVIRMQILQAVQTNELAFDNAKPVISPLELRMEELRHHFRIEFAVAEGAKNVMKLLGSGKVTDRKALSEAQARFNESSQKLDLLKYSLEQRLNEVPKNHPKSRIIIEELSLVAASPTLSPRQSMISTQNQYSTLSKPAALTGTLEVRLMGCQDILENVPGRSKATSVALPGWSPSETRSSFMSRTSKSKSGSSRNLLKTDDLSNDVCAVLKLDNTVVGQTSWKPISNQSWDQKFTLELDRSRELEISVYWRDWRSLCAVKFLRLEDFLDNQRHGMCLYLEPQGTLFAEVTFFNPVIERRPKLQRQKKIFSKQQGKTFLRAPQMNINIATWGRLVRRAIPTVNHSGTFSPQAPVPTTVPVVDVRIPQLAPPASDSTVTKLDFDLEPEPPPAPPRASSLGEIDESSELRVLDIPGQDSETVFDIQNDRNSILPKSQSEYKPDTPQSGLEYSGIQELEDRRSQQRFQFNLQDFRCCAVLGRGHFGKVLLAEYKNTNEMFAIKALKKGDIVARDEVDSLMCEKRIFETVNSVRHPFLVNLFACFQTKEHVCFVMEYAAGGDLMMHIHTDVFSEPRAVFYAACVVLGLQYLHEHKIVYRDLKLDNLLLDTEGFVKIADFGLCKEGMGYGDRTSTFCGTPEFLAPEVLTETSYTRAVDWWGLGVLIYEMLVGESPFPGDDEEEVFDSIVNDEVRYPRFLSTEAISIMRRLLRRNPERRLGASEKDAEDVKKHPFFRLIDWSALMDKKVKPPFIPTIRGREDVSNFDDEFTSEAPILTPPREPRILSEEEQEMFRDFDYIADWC

[27] = target: Proto-oncogene tyrosine-protein kinase ROS (Homo sapiens) (UniProt P08922); conditions: Compound concentration 1000.0 nM
[28] = system: Receptor-type tyrosine-protein kinase FLT3 (Homo sapiens), P36888 [D835Y]; conditions: Compound concentration 1000.0 nM
[29] = target: Focal adhesion kinase 1 (Homo sapiens) (UniProt Q05397); conditions: Compound concentration 1000.0 nM
[30] = target: Epithelial discoidin domain-containing receptor 1 (Homo sapiens) (UniProt Q08345); conditions: Compound concentration 1000.0 nM
Chain of Epithelial discoidin domain-containing receptor 1 (Homo sapiens) (Q08345 whole entry, the tested form may be a part): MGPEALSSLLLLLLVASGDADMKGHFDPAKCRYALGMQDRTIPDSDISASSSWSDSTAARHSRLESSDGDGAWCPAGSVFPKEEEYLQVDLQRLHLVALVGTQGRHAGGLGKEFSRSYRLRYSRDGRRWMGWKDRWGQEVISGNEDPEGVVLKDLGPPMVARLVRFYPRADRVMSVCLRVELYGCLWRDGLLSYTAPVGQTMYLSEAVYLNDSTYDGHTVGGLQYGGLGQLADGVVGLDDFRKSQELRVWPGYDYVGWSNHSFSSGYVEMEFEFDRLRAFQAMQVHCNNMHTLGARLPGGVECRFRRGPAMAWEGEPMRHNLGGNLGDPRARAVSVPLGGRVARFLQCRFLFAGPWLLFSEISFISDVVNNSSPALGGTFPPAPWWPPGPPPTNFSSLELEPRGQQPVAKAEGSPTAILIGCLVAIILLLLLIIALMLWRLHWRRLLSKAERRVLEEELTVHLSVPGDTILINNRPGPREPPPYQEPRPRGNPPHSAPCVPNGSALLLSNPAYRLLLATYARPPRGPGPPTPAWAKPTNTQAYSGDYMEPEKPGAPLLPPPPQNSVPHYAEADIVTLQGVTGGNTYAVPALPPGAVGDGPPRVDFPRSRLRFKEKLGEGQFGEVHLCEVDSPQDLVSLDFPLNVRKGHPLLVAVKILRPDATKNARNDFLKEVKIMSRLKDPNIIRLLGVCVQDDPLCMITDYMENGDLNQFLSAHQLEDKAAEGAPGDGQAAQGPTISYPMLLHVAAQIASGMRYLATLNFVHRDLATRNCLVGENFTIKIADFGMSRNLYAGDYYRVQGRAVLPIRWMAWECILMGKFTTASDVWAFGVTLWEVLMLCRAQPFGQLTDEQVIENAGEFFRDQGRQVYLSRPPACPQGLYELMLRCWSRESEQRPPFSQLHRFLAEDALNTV

[31] = target: Serine/threonine-protein kinase B-raf (Homo sapiens) (UniProt P15056); conditions: Compound concentration 1000.0 nM
[32] = target: TGF-beta receptor type-1 (Homo sapiens) (UniProt P36897); conditions: Compound concentration 1000.0 nM
[33] = system: Receptor-type tyrosine-protein kinase FLT3 (Homo sapiens), P36888 [UNDEFINED MUTATION]; conditions: Compound concentration 1000.0 nM
[34] = target: Serine/threonine-protein kinase DCLK2 (Homo sapiens) (UniProt Q8N568); conditions: Compound concentration 1000.0 nM
[35] = system: Receptor-type tyrosine-protein kinase FLT3 (Homo sapiens), P36888 [N841I]; conditions: Compound concentration 1000.0 nM
[36] = target: Tyrosine-protein kinase Mer (Homo sapiens) (UniProt Q12866); conditions: Compound concentration 1000.0 nM
Chain of Tyrosine-protein kinase Mer (Homo sapiens) (Q12866 whole entry): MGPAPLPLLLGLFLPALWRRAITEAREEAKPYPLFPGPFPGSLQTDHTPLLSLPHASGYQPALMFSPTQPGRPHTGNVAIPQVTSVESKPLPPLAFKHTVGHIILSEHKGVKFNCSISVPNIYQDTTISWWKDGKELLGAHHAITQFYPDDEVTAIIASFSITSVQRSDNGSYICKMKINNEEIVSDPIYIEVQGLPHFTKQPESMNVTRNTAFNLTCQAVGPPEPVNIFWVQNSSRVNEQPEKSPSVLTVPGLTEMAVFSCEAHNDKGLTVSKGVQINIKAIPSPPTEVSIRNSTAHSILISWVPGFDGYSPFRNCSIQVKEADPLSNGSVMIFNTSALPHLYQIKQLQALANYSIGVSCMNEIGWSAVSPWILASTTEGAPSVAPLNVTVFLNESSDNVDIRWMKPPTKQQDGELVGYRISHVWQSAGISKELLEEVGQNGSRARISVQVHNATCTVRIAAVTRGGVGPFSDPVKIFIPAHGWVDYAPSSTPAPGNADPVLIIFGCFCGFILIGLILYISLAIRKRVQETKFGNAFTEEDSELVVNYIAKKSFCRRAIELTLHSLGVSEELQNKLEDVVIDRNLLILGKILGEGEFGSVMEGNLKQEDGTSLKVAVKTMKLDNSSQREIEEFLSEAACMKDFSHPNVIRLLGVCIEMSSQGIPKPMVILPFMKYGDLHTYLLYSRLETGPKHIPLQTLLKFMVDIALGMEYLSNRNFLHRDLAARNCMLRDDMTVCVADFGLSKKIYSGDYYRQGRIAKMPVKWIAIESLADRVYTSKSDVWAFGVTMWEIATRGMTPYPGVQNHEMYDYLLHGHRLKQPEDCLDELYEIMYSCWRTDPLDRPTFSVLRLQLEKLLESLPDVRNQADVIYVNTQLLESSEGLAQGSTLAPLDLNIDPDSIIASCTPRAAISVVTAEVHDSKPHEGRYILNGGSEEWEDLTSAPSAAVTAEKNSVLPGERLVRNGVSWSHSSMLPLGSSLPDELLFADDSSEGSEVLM

[37] = target: BMP-2-inducible protein kinase (Homo sapiens) (UniProt Q9NSY1); conditions: Compound concentration 1000.0 nM
[38] = target: Histamine H3 receptor (Homo sapiens) (UniProt Q9Y5N1); conditions: Compound concentration 10.0 uM

Structure (SMILES) | residual activity [1] [%] | residual activity [2] [%] | inhibition (Histamine H2 receptor) [%] | residual activity [3] [%] | Ki ([4]; read-out: Ki) [nM] | residual activity [5] [%] | residual activity [6] [%] | residual activity [7] [%] | residual activity [8] [%] | inhibition [9] [%] | residual activity [10] [%] | residual activity [11] [%] | inhibition [12] [%] | Ki [13] [nM] | Ki [14] [nM] | residual activity [15] [%] | residual activity [16] [%] | residual activity [17] [%] | residual activity [18] [%] | residual activity [19] [%] | also measured
CNCc1ccccc1-c1csc([C@@H](C)Nc2nc(C)nc3cc(OC)c(OC)cc23)c1 [BAY-293] | 100 | 100 | 100 | 88 | 133 | 88 | 90 | 100 | 96 | 75 | 99 | 97 | 91.7 | 381 | 512 | 100 | 100 | 100 | 100 | 94 | Ki ([4]; read-out: pKi (converted)): 110 nM; residual activity [20]: 94%; residual activity [21]: 92%; residual activity [22]: 79%; residual activity [23]: 100%; residual activity [24]: 100%; residual activity [25]: 100%; residual activity [26]: 89%; residual activity [27]: 84%; residual activity [28]: 84%; residual activity [29]: 86%; residual activity [30]: 100%; residual activity [31]: 100%; residual activity [32]: 74%; residual activity [33]: 48%; residual activity [34]: 99%; residual activity [35]: 77%; residual activity [36]: 61%; residual activity [37]: 87%; inhibition [38]: 26.7%
CNCc1ccccc1-c1csc([C@H](C)Nc2nc(C)nc3cc(OC)c(OC)cc23)c1 [BAY-294] | 100 | 100 | 101 | 98 | 69.4 | 100 | 100 | 90 | 100 | 81.2 | 100 | 100 | 93.5 | 127 | 1470 | 81 | 84 | 100 | 100 | 100 | residual activity [20]: 83%; residual activity [21]: 100%; residual activity [22]: 81%; residual activity [23]: 100%; residual activity [24]: 100%; residual activity [25]: 100%; residual activity [26]: 90%; residual activity [27]: 100%; residual activity [28]: 100%; residual activity [29]: 92%; residual activity [30]: 100%; residual activity [31]: 97%; residual activity [32]: 80%; residual activity [33]: 81%; residual activity [34]: 100%; residual activity [35]: 100%; residual activity [36]: 72%; residual activity [37]: 79%; inhibition [38]: 24.6%
